From publication PMC12005989, “Purification, identification, and in silico screening of a multifunctional octapeptide from semen armeniacae glutelin-2 hydrolysates: restraining mechanisms to Keap1 and ACE, stability, and ferrous-transport efficiency” (Frontiers in Nutrition, 2025)
Ends that are not written are not given here.

Key:
[1] = target: T1, angiotensin-I-converting enzyme (ACE) (Oryctolagus cuniculus, UniProt P12822); experiment: ACE restraining capacity, hippuric acid method; format: biochemical, Rabbit; details: substrate HHL, absorbance 228 nm, IC50 from regression of inhibition against concentration, tests in triplicate, read-out: ACE-inhibitory activity (IC50)
T1 construct: Rabbit lungs ACE (0.1 U) was obtained from Sigma-Aldrich (St. Louis, MO, USA); purchased Sigma-Aldrich (St. Louis, MO, USA); host or cells: rabbit lung (tissue-derived)
T1 sequence (P12822 34-1310): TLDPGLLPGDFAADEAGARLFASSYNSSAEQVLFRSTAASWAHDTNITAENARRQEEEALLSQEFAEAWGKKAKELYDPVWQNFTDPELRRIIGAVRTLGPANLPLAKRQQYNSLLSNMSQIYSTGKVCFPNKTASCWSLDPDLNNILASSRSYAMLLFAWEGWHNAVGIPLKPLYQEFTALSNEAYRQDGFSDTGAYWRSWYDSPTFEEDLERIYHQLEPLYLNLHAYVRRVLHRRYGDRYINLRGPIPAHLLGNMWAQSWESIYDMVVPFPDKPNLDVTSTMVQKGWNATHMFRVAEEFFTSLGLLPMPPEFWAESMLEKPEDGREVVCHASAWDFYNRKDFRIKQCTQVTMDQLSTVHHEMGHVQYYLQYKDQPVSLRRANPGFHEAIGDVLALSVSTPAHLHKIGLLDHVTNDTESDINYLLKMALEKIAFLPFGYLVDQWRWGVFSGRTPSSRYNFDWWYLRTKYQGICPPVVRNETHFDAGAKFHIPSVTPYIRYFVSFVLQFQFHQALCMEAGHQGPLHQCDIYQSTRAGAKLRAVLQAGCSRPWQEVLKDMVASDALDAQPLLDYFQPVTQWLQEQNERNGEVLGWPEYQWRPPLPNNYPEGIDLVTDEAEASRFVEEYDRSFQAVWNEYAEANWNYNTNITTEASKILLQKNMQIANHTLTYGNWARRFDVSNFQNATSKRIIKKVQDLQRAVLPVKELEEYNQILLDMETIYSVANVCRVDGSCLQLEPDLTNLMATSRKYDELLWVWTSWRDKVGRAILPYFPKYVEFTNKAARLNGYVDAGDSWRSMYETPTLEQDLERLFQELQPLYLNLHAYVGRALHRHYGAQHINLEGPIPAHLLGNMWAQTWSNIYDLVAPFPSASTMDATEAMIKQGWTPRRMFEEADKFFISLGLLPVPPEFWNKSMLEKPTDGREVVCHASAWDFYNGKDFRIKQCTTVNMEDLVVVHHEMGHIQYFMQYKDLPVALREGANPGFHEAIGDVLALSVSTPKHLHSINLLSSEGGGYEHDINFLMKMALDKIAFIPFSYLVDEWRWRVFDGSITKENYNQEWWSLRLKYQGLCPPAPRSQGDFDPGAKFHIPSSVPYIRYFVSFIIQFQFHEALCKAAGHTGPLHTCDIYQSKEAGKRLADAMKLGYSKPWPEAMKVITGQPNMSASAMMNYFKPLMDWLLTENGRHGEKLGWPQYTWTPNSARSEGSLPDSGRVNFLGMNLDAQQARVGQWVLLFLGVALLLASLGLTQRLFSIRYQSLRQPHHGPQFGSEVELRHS
From the text: The hippuric acid method ([50]) was used to measure the samples’ restraining capacity against ACE citing the same procedures from Zheng et al. ([34]). The absorbance of the reaction solution at 228 nm was the hippuric acid content and was proportional to ACE activity; therefore, the restraining capacity of samples toward ACE was defined as the percentage reduction in the absorption at 228 nm between the control and sample groups.

[2] = Hydroxyl radical quenching, β-deoxyribose oxidation method; details: 100 μg/mL, mean ± SD, triplicate
Protocol: Next, the purification of BAG-2H is a two-step process: first, BAG-2H solution (1 g/L) was subjected to ultra-filtration on an ultra-membrane (filter aperture of 220 nm, Jingfei Membrane Equipment Factory, Luzhou, China). Next, the ultra-filtrate solution (2 mL) was chromatographically purified citing the modified procedures from Li et al. ([30]). Pre-balanced G-15 gel was loaded into a HS-MG-125 chromatographic column (Huasheng Chromatography Tech. Co., Ltd., Wuxi, China). After the BAG-2H ultra-filtrate solution has completely sunk into the column plane, the gel chromatographic column was sealed and eluted using dH2O with a constant velocity of 2.4 mL/min and monitor wavelength of 220 nm. An automatic collector (BT-160I, Thirdli Collection Equipment Co., Ltd., Guangzhou, China) was used to collect the elution, and the collection tube was changed every 5 min ([34]). After 400 min, the profiles of absorbance at 220 nm against elution time were drawn, and the separation fractions were freeze-dried using the EHI-220D lyophilizer. The ACE-inhibitory, ferrous-binding, and hydroxyl radical quenching abilities of the separation fractions were detected citing the hippuric acid ([50]), […]. During screening of the separation fractions, ACE-inhibitory and hydroxyl radical quenching abilities were the primary indexes, and the amino acid sequences of the selected fraction were analyzed.
The free radical quenching ability of samples, including superoxide, 2,2′-hydrazine-bis (3-ethylbenzothiazolin-6-sulfonic acid) diamine salt cation (ABTS^+), and hydroxyl radicals, was determined using the pyrogallol auto-oxidation, potassium persulfate, and β-deoxyribose oxidation methods, according to the same procedures from Tyagi et al. ([6]), Lin et al. ([2]), and Wang et al. ([35]), respectively. […]
Physicochemical properties and functionalities of BAG-2H peptides, including antihypertension and antioxidant activity, were in silico analyzed with the AHTpin^2 and Peptide Ranker server^3 databases ([39]), respectively. […]

[3] = Superoxide radical quenching, pyrogallol auto-oxidation method; details: 100 μg/mL, mean ± SD, triplicate
Protocol: The free radical quenching ability of samples, including superoxide, 2,2′-hydrazine-bis (3-ethylbenzothiazolin-6-sulfonic acid) diamine salt cation (ABTS^+), and hydroxyl radicals, was determined using the pyrogallol auto-oxidation, potassium persulfate, and β-deoxyribose oxidation methods, according to the same procedures from Tyagi et al. ([6]), Lin et al. ([2]), and Wang et al. ([35]), respectively. Comparison was conducted when the samples were replaced by glutathione (0.1 mg/mL).
As described by Wu et al. ([41]), the simulative gastric digestive fluid consisted of sodium chloride (0.18 mol/L), ultrapure water (180 mL), and 0.40 mg/mL of pepsin. The simulation intestinal digestive juice was composed of NaHCO3 (0.625 g/mL), bile salt (3 g/100 mL), pancreatin (0.35 mg/mL), and 180 mL ultrapure water. In a glass triangle flask, 300 mg of the antihypertensive and antioxidant BAG-2H peptides, 60 mL of ultrapure water, and 150 mL of the simulative gastric fluid were mixed thoroughly. The flask was placed at 37°C in an EDZF-C002 thermostatic vibrator with shaking rate of 140 rpm. After 90 min, 180 mL of the simulative intestinal hydrolysis fluid was added and stirred at 37°C for 2 h. To stop the hydrolysis, the digestion solution in the flask was boiled for 6 min and then cooled by running water to room temperature. The ACE inhibition capacity and antioxidant ability of the treated BAG-2H peptides were detected and compared to those of the undigested BAG-2H peptides.

PVDFAGFY-ferrous chelate: ferrous chelate of PVDFAGFY prepared with ferrous chloride (also: ferrous chelate)
IC50 [1]: 101 µM
·OH scavenging activity, before gastrointestinal [2]: 79.37%
·OH scavenging activity, before gastrointestinal ([2]; listed as PVDFAGFY-Fe): 79.37% ± 4.21%b
Superoxide radical scavenging ability, before gastrointestinal [3]: 69.55%
Superoxide radical scavenging ability, before gastrointestinal ([3]; listed as PVDFAGFY-Fe): 69.55% ± 3.41%b
